Consider one compound from patent publication US9193744B2, “Heterocyclic nuclear hormone receptor modulators” (AbbVie Inc., priority 2012, dated 2015).

Structures are written as SMILES.

One experiment relates to OCN. Briefly: MG-63 Cell Assay to Measure Bone Markers (inhibition of Vitamin K/Vitamin D-induced OCN). The experiment is classed as cell-based. Conditions: Homo sapiens, MG63 cells. As for the experimental part: MG-63 Cell Assay to Measure Bone Markers
MG-63 cells were cultured in culture media containing ascorbic acid (DMEM/F12 supplemented with 10% FBS, 1% HEPES, 100 U/mL-100 μg/mL Pen-Strep, and 100 μg/mL of ascorbic acid) for, minimally, 1 week before study. MG-63 cells were seeded (4E4 cells/well) in 96-well assay plates in culture medium (200 μL/well.) After overnight culture in an incubator set to 37° C., 4.9% CO2, and 90% humidity, media was removed from adherent cells by aspiration and replaced with 100 μL/well assay medium, DMEM/F12 supplemented with 5% Charcoal Stripped Serum, 1% HEPES, 100 U/mL-100 μg/mL Pen-Strep, and 100 μg/mL of ascorbic acid. Compounds were prepared with DMSO and serial diluted (1:3, 1:4, or 1:5) with DMSO in dilution plate(s) to give 10 dilution points for each compound tested. Further dilution (1:250) of compound was made into assay medium and 50 μL/well diluted drug or DMSO/media control was applied to cells. After a 1 h pre-incubation in a temperature, CO2, and humidity controlled incubator, set to 37° C., 50 μL/well of 40 nM Vitamin K and 400 nM Vitamin D that were diluted in assay media were applied to plates. Assay plates, with a final volume of 200 μL/well and final concentrations of 0.1% DMSO, 10 nM Vitamin K, and 100 nM Vitamin D, were returned to incubator for overnight culture. Next, plates were spun at 183 g (1000 rpm in Beckman/Coulter Allegra 6KR centrifuge) for 10 min. Cell-free supenatant (150 μL/well) was collected and OCN was measured by MSD kit, following protocol of manufacturer, and using MSD SECTOR Imager 6000 instrument. Potency of drug to inhibit OCN was determined using the percent reduction of measured OCN in wells with drug compared to control wells without drug, and relative to (100% inhibition) positive control sample of 10 μM prednisolone. Results were represented as IC50 and Emax values. To verify that viable cell numbers were similar across plate(s), and not confounding compound IC50 data interpretation, the remaining 50 μL/well of cells and media (after removal of supernatant) were used to run Cell Titer-Glo Assay per directions of manufacturer.

Another experiment concerns IL-6. Briefly: A549 Cell Assay to Measure Inflammation Markers (inhibition of IL-1β-induced IL-6). The experiment is classed as cell-based. Conditions: Homo sapiens; A549 cells; read-out: A549 cell assay. Put shortly: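 A549 cells pre-incubated 1 h with compound (10-point dilution, 0.1% DMSO final) in charcoal-stripped serum medium, then stimulated 4 h with 1 ng/mL IL-1β at 37° C. Supernatant IL-6 measured by MSD immunoassay; IC50 and Emax relative to 1 μM prednisolone as 100% inhibition; viability checked by CellTiter-Glo.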

In experiment [1] the target is T1, Glucocorticoid Receptor (GR) (Homo sapiens, UniProt P04150).
T1 construct: purchased Invitrogen P2893
T1 sequence (P04150 1-777): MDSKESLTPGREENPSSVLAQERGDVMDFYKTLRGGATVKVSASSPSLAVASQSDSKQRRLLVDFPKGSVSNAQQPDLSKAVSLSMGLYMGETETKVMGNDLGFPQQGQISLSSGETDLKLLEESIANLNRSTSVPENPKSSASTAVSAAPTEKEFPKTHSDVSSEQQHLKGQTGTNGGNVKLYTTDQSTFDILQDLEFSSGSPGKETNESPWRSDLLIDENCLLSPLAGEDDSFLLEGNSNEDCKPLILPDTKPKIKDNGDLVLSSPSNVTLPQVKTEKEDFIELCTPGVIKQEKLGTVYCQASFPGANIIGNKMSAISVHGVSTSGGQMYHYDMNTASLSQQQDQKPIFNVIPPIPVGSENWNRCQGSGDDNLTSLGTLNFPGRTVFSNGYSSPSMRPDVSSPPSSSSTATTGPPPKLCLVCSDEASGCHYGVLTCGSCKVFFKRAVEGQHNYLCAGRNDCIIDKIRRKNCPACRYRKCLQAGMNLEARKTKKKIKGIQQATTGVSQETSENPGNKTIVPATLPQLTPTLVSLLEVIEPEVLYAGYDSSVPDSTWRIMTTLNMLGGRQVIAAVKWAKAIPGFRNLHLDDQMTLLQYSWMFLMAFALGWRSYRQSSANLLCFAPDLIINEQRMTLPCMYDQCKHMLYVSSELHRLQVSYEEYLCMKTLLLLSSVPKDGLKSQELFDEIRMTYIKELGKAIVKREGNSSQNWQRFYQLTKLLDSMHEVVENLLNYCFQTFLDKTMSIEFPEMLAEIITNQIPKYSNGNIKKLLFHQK
Briefly: GR Fluorescence Polarization Assay (PolarScreen Glucocorticoid Receptor Competitor Assay, Red). To be noted: fluorescence polarization binding ranges. The method, boiled down: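 Compound displacement of a red-labelled glucocorticoid from GR, read as fluorescence polarization. Tracer, receptor and 1:4-serially diluted compound were left together overnight at 4° C in the kit assay buffer.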

As for `CCC[C@]1(O)CC[C@@]2(CC)c3cc4cnn(-c5ccc(F)cc5)c4cc3CCC[C@@H]2C1` (single isomer, unassigned) [Example 5], the figures for the IC50 (with OCN; in the experiment on IL-6; in experiment [1]) were over 10 µM, 100 to 1000 nM and under 100 nM, respectively.
